Measured values from US20250136592A1, “C-LINKED INHIBITORS OF ENL/AF9 YEATS” (Bridge Medicines, priority 2021, published 2025).
Read-outs that look alike come from different tables or passages of the source.

Tests used:
[1] = test system: MV4:11 (MLL-AF4 MLL) cells; test: Cell viability assay (CellTiter-Glo), 12 days; assay type: cell-based; settings: MV4;11 cells, 12 day, read-out: CTG_MV4, 11 12 DAY_EC50
Description: The assays were conducted over 12 days and the cells being split on days 4 and 8. […] Blank wells received cell culture medium. Plates were incubated for 4 days at 37° C. with 5% CO2. On days 4 and day 8 the cells were split and incubated for a further 4 days whilst an aliquot of cells were taken for the CTG readout. For the cell splitting, 270 nL of compounds or DMSO was added to a new 96 well cell culture plate to which 90 μL of medium plus 10 μL of cells from the original assay plate (after mixing) or 100 μL of medium (Blank wells) was added. This was repeated on day 8.
Cell viability was assessed using the CellTiter-Glo® homogeneous luminescent assay kit (Promega, G9243), according to the manufacturer's instructions. This quantifies ATP, which indicates the presence of metabolically active cells. […] The resulting data were analyzed as follows:
where vehicle are cells treated with 0.3% DMSO, Blank is culture medium. IC50 determinations were calculated by fitting the curve using XLfit (v5.3.1.3): Y=Bottom+(Top−Bottom)/(1+10^((LogIC50−X)*HillSlope)).

ENL YEATS domain = ENL YEATS domain (Homo sapiens (Human), UniProt Q03111); test: TR-FRET ENL Screening Assay; settings: 6xHIS ENL YEATS domain binding to H3K9cr peptide
Description: Compounds of the invention were tested in a TR-FRET ENL Screening Assay. TR-FRET (time-resolved fluorescence energy transfer) can be used to quantify ENL YEATS domain binding to a crotonylated histone peptide (H3K9cr, aa1-20). Streptavidin-Europium (Eu) chelate binds the biotinylated peptide, while Anti-6×HIS ULight™ binds 6×HIS-ENL. When Eu chelate is excited at 320 nm, fluorescence resonance energy transfer (FRET) occurs if Eu and ULight are made proximal by ENL binding to the acyl-peptide.
Low control (LC) wells received 5 μL of assay buffer instead of ENL protein. […] The response at each compound concentration minus the LC value was converted to percent inhibition of the vehicle control group response (HC-LC).

Sequence of ENL YEATS domain (Q03111 1-138): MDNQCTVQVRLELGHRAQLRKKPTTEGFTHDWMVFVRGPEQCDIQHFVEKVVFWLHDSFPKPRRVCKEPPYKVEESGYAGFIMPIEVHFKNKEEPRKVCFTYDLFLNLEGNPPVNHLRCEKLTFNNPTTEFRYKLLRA

Row | Structure (SMILES) | EC50 ([1]; Homo sapiens, 288 h) [nM] | EC50 [1] [nM] | IC50 (ENL YEATS domain) [nM]
1 | Cc1cc2ccc(C(=O)Nc3cc4[nH]c([C@H]5CCCN5C)cc4cn3)cn2n1 [Example 1, 2-methyl-N-{2-[(2R)-1-methylpyrrolidin-2-yl]-1H-pyrrolo[3,2-c]pyridin-6-yl}pyrazolo[1,5-a]pyridine-6-carboxamide] | 3250 | – | –
2 | CN1CCCC1c1nc2cnc(NC(=O)c3ccc4c(cnn4C)c3)cc2[nH]1 (stereo not shown) [Example 2, 1-methyl-N-(2-(1-methylpyrrolidin-2-yl)-1H-imidazo[4,5-c]pyridin-6-yl)-1H-indazole-5-carboxamide] | 1320 | – | –
3 | CN1CCC[C@@H]1c1nc2cc(NC(=O)c3ccc4c(cnn4-c4ccncc4)c3)ccc2[nH]1 [Example 3, (R)—N-(2-(1-methylpyrrolidin-2-yl)-1H-benzo[d]imidazol-5-yl)-1-(pyridin-4-yl)-1H-indazole-5-carboxamide] | 571 | – | –
4 | CC(O)c1ncc2cc(C(=O)Nc3cc4[nH]c([C@H]5CCCN5C)cc4cn3)ccn12 (stereo partly drawn) [Example 4, 3-(1-hydroxyethyl)-N-(2-((R)-1-methylpyrrolidin-2-yl)-1H-pyrrolo[3,2-c]pyridin-6-yl) imidazo[1,5-a]pyridine-7-carboxamide] | – | 4370 | 203
5 | CN1CCC[C@@H]1c1cc2cnc(NC(=O)c3cc4c(cn3)cnn4C)cc2[nH]1 [Example 5, (R)-1-methyl-N-(2-(1-methylpyrrolidin-2-yl)-1H-pyrrolo[3,2-c]pyridin-6-yl)-1H-pyrazolo[4,3-c]pyridine-6-carboxamide] | – | – | 1240
6 | CN1CCC[C@@H]1c1cc2cnc(NC(=O)c3ccn4c(C5COC5)ncc4c3)cc2[nH]1 [Example 6, (R)—N-(2-(1-methylpyrrolidin-2-yl)-1H-pyrrolo[3,2-c]pyridin-6-yl)-3-(oxetan-3-yl) imidazo[1,5-a]pyridine-7-carboxamide] | – | 33 | 106
7 | CN1CCC[C@@H]1c1nc2cc(NC(=O)c3cc4cnn(-c5ccncc5)c4cc3F)ccc2[nH]1 [Example 7, (R)-6-fluoro-N-(2-(1-methylpyrrolidin-2-yl)-1H-benzo[d]imidazol-5-yl)-1-(pyridin-4-yl)-1H-indazole-5-carboxamide] | 101 | – | 142
8 | CN1CCCC[C@@H]1c1cc2cnc(NC(=O)c3ccc4cnn(C)c4c3)cc2[nH]1 [Example 8, 1-methyl-N-[2-[(2R)-1-methylpiperidin-2-yl]-1H-pyrrolo[3,2-c]pyridin-6-yl]indazole-6-carboxamide] | 123 | – | 100
9 | CN1CCCCC1c1nc2cc(NC(=O)c3ccc4c(cnn4C)c3)ccc2[nH]1 (stereo not shown) [Example 9, 1-methyl-N-[2-(1-methylpiperidin-2-yl)-1H-1,3-benzodiazol-5-yl]indazole-5-carboxamide] | – | – | 200
10 | CN1CCC[C@@H]1c1nc2ccc(NC(=O)c3ccc4c(C5CC5)nn(C)c4c3)cc2[nH]1 [Example 10] | 280 | – | –
11 | Cc1noc2ccc(C(=O)Nc3ccc4nc([C@H]5CCCN5C)[nH]c4c3)cc12 [Example 11] | – | – | 465
12 | Cc1noc2cc(C(=O)Nc3ccc4nc(C5CCCN5C)[nH]c4c3)ccc12 (stereo not shown) [Example 12] | 201 | – | 78
13 | CN1CCC[C@@H]1c1nc2cc(NC(=O)c3ccc4c(-c5ccncc5)noc4c3)ccc2[nH]1 [Example 13] | 359 | – | –
14 | Cc1noc2cc(C(=O)Nc3ccc4nc([C@H]5CCCN5C)[nH]c4c3)c(F)cc12 [Example 14] | 4640 | – | 178
15 | CN1CCC[C@@H]1c1nc2ccc(NC(=O)c3cc4cccnc4cc3F)cc2[nH]1 [Example 16] | 106 | – | –
16 | CN1CCC[C@@H]1c1nc2ccc(NC(=O)c3ccc4onc(C5CC5)c4c3)cc2[nH]1 [Example 17] | 3250 | – | –
17 | Cc1noc2c(F)c(C(=O)Nc3ccc4nc([C@H]5CCCN5C)[nH]c4c3)ccc12 [Example 18] | – | – | 125
18 | CN1CCC[C@@H]1c1nc2cc(NC(=O)c3ccc4c(cnn4-c4ccccn4)c3)ccc2[nH]1 [Example 21] | – | – | 200
19 | CN1CCC[C@@H]1c1nc2cc(NC(=O)c3ccc4c(cnn4-c4cccnc4)c3)ccc2[nH]1 [Example 22] | – | – | 131
20 | CN1CCC[C@@H]1c1nc2cc(NC(=O)c3ccc4c(cnn4-c4ccncn4)c3)ccc2[nH]1 [Example 23] | – | – | 277
21 | CN1CCCC1c1nc2ccc(NC(=O)c3ccc4ncccc4c3)cc2[nH]1 (stereo not shown) [Example 25] | – | – | 181
22 | CN1CCC[C@@H]1c1nc2cc(NC(=O)c3ccc4c(c3)[nH]c(=O)n4C)ccc2[nH]1 [Example 26] | 374 | – | 145
23 | Cc1ncc2ccc(C(=O)Nc3cc4[nH]c([C@H]5CCCN5C)cc4cn3)cn12 [Example 28] | 186 | – | 133
24 | CN1CCC[C@@H]1c1cc2cnc(NC(=O)c3ccc4c(C5CC5)nn(C)c4c3)cc2[nH]1 [Example 29] | 1120 | – | 21

Row | Structure (SMILES) | EC50 ([1]; Homo sapiens, 288 h) [nM] | EC50 [1] [nM] | IC50 (ENL YEATS domain) [nM]
25 | Cc1noc2cc(C(=O)Nc3cc4[nH]c([C@H]5CCCN5C)cc4cn3)ccc12 [Example 30] | 39 | – | 51
26 | Cc1n[nH]c2ccc(C(=O)Nc3cc4[nH]c([C@H]5CCCN5C)cc4cn3)cc12 [Example 31] | 91 | – | 57
27 | Cc1ncn2cc(C(=O)Nc3cc4[nH]c([C@H]5CCCN5C)cc4cn3)ccc12 [Example 32] | 12200 | – | 58
28 | CN1CCC[C@@H]1c1cc2cnc(NC(=O)c3ccc4[nH]nc(C(F)(F)F)c4c3)cc2[nH]1 [Example 33] | 1780 | – | 42
29 | Cc1cnn2cc(C(=O)Nc3cc4[nH]c([C@H]5CCCN5C)cc4cn3)ccc12 [Example 34] | 570 | – | 48
30 | CN1CCC[C@@H]1c1cc2cnc(NC(=O)c3ccn4c(C(F)(F)F)ncc4c3)cc2[nH]1 [Example 35] | 269 | – | 114
31 | Cc1cnn2ccc(C(=O)Nc3cc4[nH]c([C@H]5CCCN5C)cc4cn3)cc12 [Example 36] | 853 | – | 43
32 | CN1CCC[C@@H]1c1cc2cnc(NC(=O)c3ccc4c(C(F)(F)F)ncn4c3)cc2[nH]1 [Example 37] | 47 | – | 55
33 | CN1CCC[C@@H]1c1cc2cnc(NC(=O)c3ccc4cnn(C)c4c3)cc2[nH]1 [Example 38] | 87 | – | 94
34 | CN1CCC[C@@H]1c1cc2cnc(NC(=O)c3ccc4c(C(F)(F)F)nn(C)c4c3)cc2[nH]1 [Example 39] | 2780 | – | 43
35 | CN1CCC[C@@H]1c1cc2cnc(NC(=O)c3cnc4c(ccn4C)c3)cc2[nH]1 [Example 44] | – | – | 780
36 | CN1CCC[C@@H]1c1cc2cnc(NC(=O)c3ccc4c(c3)[nH]c(=O)n4C)cc2[nH]1 [Example 48] | – | – | 30
37 | COc1nccc2cc(C(=O)Nc3cc4[nH]c([C@H]5CCCN5C)cc4cn3)ccc12 [Example 52] | – | – | 25
38 | Cc1nc(C(F)(F)F)c2ccc(C(=O)Nc3cc4[nH]c([C@H]5CCCN5C)cc4cn3)cn12 [Example 53] | 5290 | – | –
39 | Cc1nc(C)n2cc(C(=O)Nc3cc4[nH]c([C@H]5CCCN5C)cc4cn3)ccc12 [Example 71] | 220 | – | –
40 | Cc1ccc2cc(C(=O)Nc3cnc4cc([C@H]5CCCN5C)[nH]c4c3)c(F)cc2n1 [Example 73] | 1420 | – | –
41 | CNc1nccc2cc(C(=O)Nc3cc4[nH]c([C@H]5CCCN5C)cc4cn3)ccc12 [Example 79, (R)-1-(methylamino)-N-(2-(1-methylpyrrolidin-2-yl)-1H-pyrrolo[3,2-c]pyridin-6-yl) isoquinoline-6-carboxamide] | 446 | – | –
42 | Cc1nccc2cc(C(=O)Nc3cc4[nH]c([C@H]5CCCCN5C)cc4cn3)ccc12 [Example 80, (R)-1-methyl-N-(2-(1-methylpiperidin-2-yl)-1H-pyrrolo[3,2-c]pyridin-6-yl) isoquinoline-6-carboxamide] | 187 | – | –
43 | CN1CCC[C@@H]1c1cc2cnc(NC(=O)c3ccc4c(c3)nnn4-c3ccncc3)cc2[nH]1 [Example 85] | 488 | – | –
44 | CN1CCCC[C@@H]1c1cc2cnc(NC(=O)c3ccc4nnn(C)c4c3)cc2[nH]1 [Example 91, (R)-1-methyl-N-(2-(1-methylpiperidin-2-yl)-1H-pyrrolo[3,2-c]pyridin-6-yl)-1H-benzo[d][1,2,3]triazole-6-carboxamide] | 215 | – | –
45 | CN1C(=O)Cc2cc(C(=O)Nc3cc4[nH]c([C@H]5CCCCN5C)cc4cn3)ccc21 [Example 95] | 451 | – | –
46 | CN1CCCC[C@@H]1c1cc2cnc(NC(=O)c3ccc4cc(=O)n(C)n4c3)cc2[nH]1 [Example 97] | 146 | – | –
47 | CN1CCCC[C@@H]1c1cc2cnc(NC(=O)c3ccc4c(cnn4C)c3)cc2[nH]1 [Example 98] | 440 | – | –
48 | CN1CCCC[C@@H]1c1cc2cnc(NC(=O)c3ccc4c(=O)n(C)ccc4c3)cc2[nH]1 [Example 100, (R)-2-methyl-N-(2-(1-methylpiperidin-2-yl)-1H-pyrrolo[3,2-c]pyridin-6-yl)-1-oxo-1,2-dihydroisoquinoline-6-carboxamide] | 202 | – | –
